Measurements as given in patent US20100298141A1, “SUBSTITUTED PYRIDINE N-OXIDE HERBICIDES” (E. I. DU PONT DE NEMOURS AND COMPANY, priority 2007, published 2010).

Key:
Test in all cases: Test F preemergence test
Details in all cases: scale 0 to 100
barnyardgrass = type: in vivo, Echinochloa crus-galli
Summary of the method: (§1)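 Test chemicals were formulated in a non-phytotoxic solvent mixture with surfactant and applied preemergence to planted seeds or postemergence to sugarcane plants. Plants were kept in a greenhouse for 14 to 21 days, then visually evaluated against controls.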

annual bluegrass = type: in vivo, Poa annua
Summary of the method: as §1

prickly sida = type: in vivo, Sida spinosa
Summary of the method: as §1

mustard = type: in vivo, Brassica nigra
Summary of the method: as §1

field bindweed = type: in vivo, Convolvulus arvensis
Summary of the method: as §1

Canada horseweed = type: in vivo, Conyza canadensis
Summary of the method: as §1

common purslane = type: in vivo, Portulaca oleracea
Summary of the method: as §1

Italian ryegrass = type: in vivo, Lolium multiflorum
Summary of the method: as §1

large crabgrass = type: in vivo, Digitaria sanguinalis
Summary of the method: as §1

pitted morningglory = type: in vivo, Ipomoea lacunosa
Summary of the method: as §1

quackgrass = type: in vivo, Elytrigia repens
Summary of the method: as §1

southern sandbur = type: in vivo, Cenchrus echinatus
Summary of the method: as §1

Surinam grass = type: in vivo, Brachiaria decumbens
Summary of the method: as §1

common ragweed = type: in vivo, Ambrosia elation
Summary of the method: as §1

common chickweed = type: in vivo, Stellaria media
Summary of the method: as §1

green foxtail = type: in vivo, Setaria viridis
Summary of the method: as §1

common mallow = type: in vivo, Malva sylvestris
Summary of the method: as §1

bermudagrass = type: in vivo, Cynodon dactylon
Summary of the method: as §1

naked crabgrass = type: in vivo, Digitaria nuda
Summary of the method: as §1

guineagrass = type: in vivo, Panicum maximum
Summary of the method: as §1

SMILES: Cc1cc[n+]([O-])c(S(=O)(=O)C(Cl)c2c(C(F)(F)F)nn(C)c2Cl)c1 (racemic) [Compound 22]
- Barnyardgrass plant response rating (barnyardgrass; 62 g ai/ha, Preemergence): 75
- Barnyardgrass plant response rating (barnyardgrass; 125 g ai/ha, preemergence): 95
- Plant response rating, Barnyardgrass (barnyardgrass; Preemergence, 16 g ai/ha): 10
- Plant response rating, Barnyardgrass (barnyardgrass; Preemergence, 31 g ai/ha): 40
- Bluegrass plant response rating (annual bluegrass; 62 g ai/ha, Preemergence): 30
- Bluegrass plant response rating (annual bluegrass; 125 g ai/ha, preemergence): 50
- Plant response rating, Bluegrass (annual bluegrass; Preemergence, 16 g ai/ha): 0
- Plant response rating, Bluegrass (annual bluegrass; Preemergence, 31 g ai/ha): 0
- Prickly Sida plant response rating (prickly sida; 62 g ai/ha, Preemergence): 40
- Prickly Sida plant response rating (prickly sida; 125 g ai/ha, preemergence): 80
- Plant response rating, Prickly Sida (prickly sida; Preemergence, 16 g ai/ha): 0
- Plant response rating, Prickly Sida (prickly sida; Preemergence, 31 g ai/ha): 40
- Black Mustard plant response rating (mustard; 62 g ai/ha, Preemergence): 50
- Black Mustard plant response rating (mustard; 125 g ai/ha, preemergence): 80
- Plant response rating, Black Mustard (mustard; Preemergence, 16 g ai/ha): 0
- Plant response rating, Black Mustard (mustard; Preemergence, 31 g ai/ha): 20
- Field Bindweed plant response rating (field bindweed; 62 g ai/ha, Preemergence): 0
- Field Bindweed plant response rating (field bindweed; 125 g ai/ha, preemergence): 35
- Plant response rating, Field Bindweed (field bindweed; Preemergence, 16 g ai/ha): 0
- Plant response rating, Field Bindweed (field bindweed; Preemergence, 31 g ai/ha): 0
- Horseweed plant response rating (Canada horseweed; 62 g ai/ha, Preemergence): 0
- Horseweed plant response rating (Canada horseweed; 125 g ai/ha, preemergence): 100
- Plant response rating, Horseweed (Canada horseweed; Preemergence, 16 g ai/ha): 0
- Plant response rating, Horseweed (Canada horseweed; Preemergence, 31 g ai/ha): 0
- Purslane plant response rating (common purslane; 62 g ai/ha, Preemergence): 30
- Purslane plant response rating (common purslane; 125 g ai/ha, preemergence): 90
- Plant response rating, Purslane (common purslane; Preemergence, 16 g ai/ha): 0
- Plant response rating, Purslane (common purslane; Preemergence, 31 g ai/ha): 30
- Ryegrass, Italian plant response rating (Italian ryegrass; 62 g ai/ha, Preemergence): 70
- Ryegrass, Italian plant response rating (Italian ryegrass; 125 g ai/ha, preemergence): 70
- Plant response rating, Ryegrass, Italian (Italian ryegrass; Preemergence, 16 g ai/ha): 0
- Plant response rating, Ryegrass, Italian (Italian ryegrass; Preemergence, 31 g ai/ha): 20
- Crabgrass, Large plant response rating (large crabgrass; 62 g ai/ha, Preemergence): 70
- Crabgrass, Large plant response rating (large crabgrass; 125 g ai/ha, preemergence): 70
- Plant response rating, Crabgrass, Large (large crabgrass; Preemergence, 16 g ai/ha): 0
- Plant response rating, Crabgrass, Large (large crabgrass; Preemergence, 31 g ai/ha): 50
- Morningglory plant response rating (pitted morningglory; 62 g ai/ha, Preemergence): 0
- Morningglory plant response rating (pitted morningglory; 125 g ai/ha, preemergence): 20
- Plant response rating, Morningglory (pitted morningglory; Preemergence, 16 g ai/ha): 0
- Plant response rating, Morningglory (pitted morningglory; Preemergence, 31 g ai/ha): 0
- Quackgrass plant response rating (quackgrass; 62 g ai/ha, Preemergence): 20
- Quackgrass plant response rating (quackgrass; 125 g ai/ha, preemergence): 60
- Plant response rating, Quackgrass (quackgrass; Preemergence, 16 g ai/ha): 0
- Plant response rating, Quackgrass (quackgrass; Preemergence, 31 g ai/ha): 10
- Sandbur plant response rating (southern sandbur; 62 g ai/ha, Preemergence): 75
- Sandbur plant response rating (southern sandbur; 125 g ai/ha, preemergence): 98
- Plant response rating, Sandbur (southern sandbur; Preemergence, 31 g ai/ha): 65
- Surinam Grass plant response rating (Surinam grass; 62 g ai/ha, Preemergence): 65
- Surinam Grass plant response rating (Surinam grass; 125 g ai/ha, preemergence): 90
- Plant response rating, Surinam Grass (Surinam grass; Preemergence, 31 g ai/ha): 0
- Ragweed plant response rating (common ragweed; 62 g ai/ha, Preemergence): 50
- Ragweed plant response rating (common ragweed; 125 g ai/ha, preemergence): 80
- Plant response rating, Ragweed (common ragweed; Preemergence, 16 g ai/ha): 0
- Plant response rating, Ragweed (common ragweed; Preemergence, 31 g ai/ha): 0
- Chickweed plant response rating (common chickweed; 62 g ai/ha, Preemergence): 100
- Chickweed plant response rating (common chickweed; 125 g ai/ha, preemergence): 100
- Plant response rating, Chickweed (common chickweed; Preemergence, 16 g ai/ha): 0
- Plant response rating, Chickweed (common chickweed; Preemergence, 31 g ai/ha): 65
- Foxtail, Green plant response rating (green foxtail; 62 g ai/ha, Preemergence): 20
- Foxtail, Green plant response rating (green foxtail; 125 g ai/ha, preemergence): 95
- Plant response rating, Foxtail, Green (green foxtail; Preemergence, 16 g ai/ha): 0
- Plant response rating, Foxtail, Green (green foxtail; Preemergence, 31 g ai/ha): 15
- Mallow plant response rating (common mallow; 62 g ai/ha, Preemergence): 65
- Mallow plant response rating (common mallow; 125 g ai/ha, preemergence): 65
- Plant response rating, Mallow (common mallow; Preemergence, 16 g ai/ha): 0
- Plant response rating, Mallow (common mallow; Preemergence, 31 g ai/ha): 0
- Bermudagrass plant response rating (bermudagrass; 62 g ai/ha, Preemergence): 80
- Bermudagrass plant response rating (bermudagrass; 125 g ai/ha, preemergence): 90
- Plant response rating, Bermudagrass (bermudagrass; Preemergence, 16 g ai/ha): 0
- Plant response rating, Bermudagrass (bermudagrass; Preemergence, 31 g ai/ha): 35
- Crabgrass, Naked plant response rating (naked crabgrass; 62 g ai/ha, Preemergence): 80
- Crabgrass, Naked plant response rating (naked crabgrass; 125 g ai/ha, preemergence): 100
- Plant response rating, Crabgrass, Naked (naked crabgrass; Preemergence, 16 g ai/ha): 40
- Plant response rating, Crabgrass, Naked (naked crabgrass; Preemergence, 31 g ai/ha): 75
- Guineagrass plant response rating (guineagrass; 62 g ai/ha, Preemergence): 90
- Guineagrass plant response rating (guineagrass; 125 g ai/ha, preemergence): 100
- Plant response rating, Guineagrass (guineagrass; Preemergence, 16 g ai/ha): 60
- Plant response rating, Guineagrass (guineagrass; Preemergence, 31 g ai/ha): 80
